{
  "source": "patent US9696297B2",
  "about": "“Method for preparing an X chromosome inactivated female human neural cell” (SALK INSTITUTE FOR BIOLOGICAL STUDIES, priority 2009, dated 2017)",
  "key": {"iPSC-derived neurons": {"test_system": "iPSC-derived neurons", "experiment": "Whole-cell patch clamp recording of spontaneous postsynaptic currents", "assay_type": "cell-based, human", "conditions": "for EPSCs: 10-20 μM", "experimental": "Whole-cell patch clamp recordings were performed from cells co-cultured with astrocytes after 6 weeks of differentiation. The bath was constantly perfused with fresh HEPES-buffered saline as described herein. The recording micropipettes (tip resistance 3-6 MΩ) were filled with internal solution described in the Supplemental materials. Recordings were made using Axopatch 200B amplifier (Axon Instruments). Signals were filtered at 2 kHz and sampled at 5 kHz. The whole-cell capacitance was fully compensated. The series resistance was uncompensated but monitored during the experiment by the amplitude of the capacitive current in response to a 10-mV pulse. All recordings were performed at room temperature and chemicals were purchased from Sigma. Frequency and amplitude of spontaneous postsynaptic currents were measured with the Mini Analysis Program software (Synaptosoft, Leonia, N.J.). Statistical comparisons of WT and RTT groups were made using the non-parametric Kolmogorov-Smirnov two-tailed test, with a significance criterion of p=0.05. EPSCs were blocked by CNQX or DNQX (10-20 μM) and IPSPs were inhibited by bicuculine (20 μM)."}, "RTT-derived neurons": {"test_system": "RTT-derived neurons", "experiment": "VGLUT1 puncta (glutamatergic synapse) quantification in RTT-iPSC-derived neurons, rescue experiments", "assay_type": "cell-based, human", "conditions": "for VGLUT1 puncta number / glutamatergic synapse number: RTT-derived neurons carrying different MeCP2 mutations, IGF1 10 μg/mL for 1 week"}, "[1]": {"test_system": "iPSC-derived neuronal networks", "experiment": "Calcium imaging of spontaneous calcium transients in iPSC-derived neuronal networks", "conditions": "drug treatment, concentration not printed (FIG. 11A, 11C, 11D)", "method": "Neuronal networks derived from human iPSCs were previously infected with the lentiviral vector carrying the Syn::DsRed reporter construct. Cell cultures were washed twice with sterile Krebs HepesHEPES Buffer (KHB) (10 mM HEPES, 4.2 mM NaHCO3, 10 mM dextrose, 1.18 mM MgSO4.2H2O, 1.18 mM KH2PO4, 4.69 mM KCl, 118 mM NaCl, 1.29 mM CaCl2; pH 7.3) and incubated with 0.2-0.5 μM Fluo-4AM (Molecular Probes/Invitrogen, Carlsbad, Calif.) in KHB for 40 minutes at room temperature. Excess dye was removed by washing twice with KHB and an additional 20-minute minutes incubation was done to equilibrate intracellular dye concentration and allow de-esterification. Time-lapse image sequences (200×100× magnification) of 5000 frames were acquired at 28 Hz with a region of 336×256 pixels, using a Hamamatsu ORCA-ER digital camera (Hamamatsu Photonics K.K., Hamamatsu City, Japan) with a 488 mm (FITC) filter on an Olympus IX81 inverted fluorescence confocal microscope (Olympus Optical, Tokyo, Japan). […]\nImageJ, an NIH funded open source, JAVA-based morphometric application, was used to allow manual selection of individual cells on the xy-plane of each movie using circles of 4 pixels (˜5 μm) in diameter. Each cell was considered as an individual region of interest (ROIs) and the average fluorescence intensity was calculated for each ROI in each frame using Time Series Analyzer ImageJ plugin. […]"}, "WT neurons": {"test_system": "WT neurons", "experiment": "VGLUT1 puncta (glutamatergic synapse) quantification in WT-iPSC-derived control neurons", "assay_type": "cell-based, human", "conditions": "gentamicin 400 ug/ml, 1 week", "text": "Female RTT and control fibroblasts were generated from explants of dermal biopsies following informed consent under protocols approved by the University of California San Diego. The Syn::EGFP or DsRed reporter vector was obtained by cloning the Synapsin-1 promoter in a lentivirus backbone. The shRNA against a target sequence on the human MeCP2 gene was cloned in the LentiLox3.7 lentivirus vector. Retrovirus vectors containing the Oct4, c-Myc, Klf4 and Sox2 human cDNAs from Yamanaka's group (Takahashi et al., 2007, Id.) were obtained from Addgene. Two days after infection, fibroblasts were plated on mitotically inactivated mouse embryonic fibroblasts (Chemicon) with hESC medium. After 2 weeks, iPSC colonies were directly transferred to feeder-free conditions on matrigel-coated dishes (BD) using mTeSRTM1 (StemCell Technologies), and passed manually. […]\nCells were briefly fixed in 4% paraformaldehyde and then permeabilized with 0.5% Triton-X100 in PBS. […] Fluorescent signals were detected using a Zeiss inverted microscope and images were processed with Photoshop CS3 (Adobe Systems). […] For synapse quantification, images were taken by a z-step of 1 μm using Biorad radiance 2100 confocal microscope. Synapse quantification was done blinded to genotype. Only VGLUT1 puncta along Map2-positive processes were counted. […]"}, "MeCP2": {"test_system": "MeCP2", "experiment": "MeCP2 protein level by Western blot in RTT neurons (Q244X)", "assay_type": "cell-based, human", "conditions": "gentamicin"}},
  "note": "Entries after “also recorded” stand apart in the source; their conditions may differ.",
  "data": [
    {"molecule": "CN1CCc2cc3c(cc2[C@H]1[C@@H]1OC(=O)c2c1ccc1c2OCO1)OCO3", "note": "[bicuculine]", "values": [
      {"measurement": "IPSPs", "setting": "iPSC-derived neurons; 20 μM", "value": "inhibited"}
    ]},
    {"molecule": "O=[N+]([O-])c1cc2nc(O)c(O)nc2cc1[N+](=O)[O-]", "note": "[DNQX]", "values": [
      {"measurement": "EPSCs", "setting": "iPSC-derived neurons", "value": "blocked"}
    ]},
    {"molecule": "IGF1: IGF1 (Peprotech), candidate for pharmacological treatment of RTT", "values": [
      {"measurement": "VGLUT1 puncta number / glutamatergic synapse number", "setting": "RTT-derived neurons", "value": "increased"},
      {"measurement": "VGLUT1 puncta number / glutamatergic synapse number", "setting": "RTT-derived neurons; listed as IFG1", "value": "above normal levels"}
    ]},
    {"molecule": "COc1ccc(-c2ccc(=N)n(CCCC(=O)O)n2)cc1", "note": "[Gabazine]", "values": [
      {"measurement": "intracellular calcium transients", "setting": "[1]", "value": "increased"}
    ]},
    {"molecule": "N#Cc1cc2[nH]c(=O)c(=O)[nH]c2cc1[N+](=O)[O-]", "note": "[CNQX]", "values": [
      {"measurement": "EPSCs", "setting": "iPSC-derived neurons", "value": "blocked"}
    ]},
    {"molecule": "gentamicin", "values": [
      {"measurement": "rescue of RTT neurons (VGLUT1 puncta)", "setting": "RTT-derived neurons; RTT neurons, higher gentamicin dose 400 ug/ml, 1 week", "value": "did not rescue"},
      {"measurement": "glutamatergic synapse numbers (VGLUT1 puncta)", "setting": "RTT-derived neurons; RTT-Q244X clones 3 and 4 derived neurons, lower gentamicin dose (100 ug/ml), 1 week", "value": "increased; also recorded: rescuing; also recorded: rescue"},
      {"measurement": "number of VGLUT1 puncta in control neurons", "setting": "WT neurons", "value": "lowered"},
      {"measurement": "WT MeCP2 protein levels", "setting": "MeCP2; RTT neurons (Q244X), after 2 weeks (FIG. 10E)", "value": "increased"},
      {"measurement": "MeCP2 protein levels", "setting": "MeCP2; RTT-Q244X clones 3 and 4 derived neurons, after 1 week", "value": "increase"}
    ]}
  ]
}
